Structures can show the parent of a compound that is named as a salt.

The assay addresses Recombinant human factor D (Homo sapiens (Human), UniProt P00746). Briefly: Human Complement Factor D Assay: Method 1. The format is biochemical. As to conditions: 10 nM factor D, substrate Z-Lys-thiobenzyl, fluorescence readout, read-out: IC50 (μM), Factor D inhibition. On the procedure:
Human Complement Factor D Assay: Method 1
Recombinant human factor D (expressed in E. coli and purified using standard methods) at 10 nM concentration is incubated with test compound at various concentrations for 1 hour at room temperature in 0.1 M Hepes buffer, pH 7.5, containing 1 mM MgCl2, 1 M NaCl and 0.05% CHAPS. A synthetic substrate Z-Lys-thiobenzyl and 2,4-dinitrobenzenesulfonyl-fluoresceine are added to final concentrations of 200 μM and 25 μM, respectively. The increase in fluorescence is recorded at excitation of 485 nm and emission at 535 nm in a microplate spectrofluorimeter. IC50 values are calculated from percentage of inhibition of complement factor D-activity as a function of test compound concentration.

Recombinant human factor D, sequence (P00746 26-253): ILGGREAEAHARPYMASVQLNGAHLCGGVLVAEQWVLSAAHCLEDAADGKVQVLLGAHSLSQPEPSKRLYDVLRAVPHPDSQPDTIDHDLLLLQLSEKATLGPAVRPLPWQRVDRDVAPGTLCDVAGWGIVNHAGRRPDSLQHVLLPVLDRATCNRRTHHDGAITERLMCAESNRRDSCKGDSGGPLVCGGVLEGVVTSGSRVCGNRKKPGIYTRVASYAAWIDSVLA

The term IC50 denotes the concentration that gives 50% inhibition. Take `CO[C@H]1[C@@H](C(=O)NCCC(C)(C)C)N(C(=O)Cn2nc(C(C)=O)c3ccccc32)C[C@@H]1F` [Example 5, (2S,3S,4S)-1-[2-(3-Acetyl-indazol-1-yl)-acetyl]-4-fluoro-3-methoxy-pyrrolidine-2-carboxylic acid (3,3-dimethyl-butyl)-amide]: the IC50 was 0.088 µM.

Turning to `C[C@H](CC(C)(C)C)NC(=O)[C@@H]1C[C@H]2C[C@H]2N1C(=O)Cn1nc(C(N)=O)c2ccccc21` [Example 36, 1-{2-Oxo-2-[(1R,3S,5R)-3-((R)-1,3,3-trimethyl-butylcarbamoyl)-2-aza-bicyclo[3.1.0]hex-2-yl]-ethyl}-1H-indazole-3-carboxylic acid amide], the IC50 came out at 0.113 µM.

On to `C[Si](C)(C)CCNC(=O)[C@@H]1C[C@H]2C[C@H]2N1C(=O)Nc1cn(C(N)=O)c2ccccc12` [Example 22, (1R,3S,5R)-2-Aza-bicyclo [3.1.0]hexane-2,3-dicarboxylic acid 2-[(1-carbamoyl-1H-indol-3-yl)-amide] 3-[(2-trimethylsilanyl-ethyl)-amide]], for which the IC50 came out at 0.057 µM.

Turning to `CC(C)(C)C(F)CNC(=O)[C@@H]1C[C@H]2C[C@H]2N1C(=O)Cn1nc(C(N)=O)c2ccccc21` (stereo partly drawn) [Example 44, 1-{2-[(1R,3S,5R)-3-(2-Fluoro-3,3-dimethyl-butylcarbamoyl)-2-aza-bicyclo[3.1.0]hex-2-yl]-2-oxo-ethyl}-1H-indazole-3-carboxylic acid amide], the IC50 is 0.384 µM.

Turning to `NC(=O)n1cc(NC(=O)N2[C@@H]3C[C@@H]3C[C@H]2C(=O)NCCOC(F)(F)C(F)(F)F)c2ccccc21` [Example 27, (1R,3S,5R)-2-Aza-bicyclo [3.1.0]hexane-2,3-di arboxylic acid 2-[(1-carbamoyl-1H-indol-3-yl)-amide] 3-[(2-pentafluoroethyloxy-ethyl)-amide]], the IC50 came to 1.97 µM.

For the compound `CC(C)(O)CCNC(=O)[C@@H]1C[C@H]2C[C@H]2N1C(=O)Cn1nc(C(N)=O)c2ccncc21` [Example 10, 1-{2-[(1R,3S,5R)-3-(3-Hydroxy-3-methyl-butylcarbamoyl)-2-aza-bicyclo[3.1.0]hex-2-yl]-2-oxo-ethyl}-1H-pyrazolo[3,4-c] pyridine-3-carboxylic acid amide trifluoroacetate], the IC50 was determined as 5.67 µM.

These data come from patent US9388199B2, “Pyrrolidine derivatives and their use as complement pathway modulators” (priority 2012, dated 2016).
